Results reported in ChEMBL document CHEMBL1128854, “Stereoselective synthesis and evaluation of all stereoisomers of Z4349, a novel and selective -opioid analgesic” (Bioorg Med Chem Lett, 1995).

Experiments:
Mu-type opioid receptor = Mu-type opioid receptor (Rattus norvegicus, UniProt P33535); assay: Inhibition of [3H]dihydromorphine (1 nM) binding to mu opioid receptor of rat brain homogenate
[1] = biological target: T1, Delta-type opioid receptor (Rattus norvegicus, UniProt P33533); assay: Inhibition of [3H]-[D-Pen2, D-Pen5]-enkephalin (2 nM) to Opioid receptor delta 1 of male Sprague-Dawley rat brain homogenate
T1 sequence (P33533 whole entry): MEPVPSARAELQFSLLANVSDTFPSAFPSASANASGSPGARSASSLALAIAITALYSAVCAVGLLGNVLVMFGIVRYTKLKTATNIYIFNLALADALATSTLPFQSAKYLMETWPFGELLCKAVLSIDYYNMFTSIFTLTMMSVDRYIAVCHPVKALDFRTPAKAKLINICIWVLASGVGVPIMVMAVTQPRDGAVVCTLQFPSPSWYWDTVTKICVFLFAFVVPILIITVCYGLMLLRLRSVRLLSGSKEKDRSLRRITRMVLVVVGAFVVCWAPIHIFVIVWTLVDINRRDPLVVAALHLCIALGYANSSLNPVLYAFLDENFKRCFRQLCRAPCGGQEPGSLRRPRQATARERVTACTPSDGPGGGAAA

[2] = biological target: T2, Kappa-type opioid receptor (Rattus norvegicus, UniProt P34975); assay: […] to Opioid receptor kappa 1 of rat brain homogenate; Not detectable; type: tissue-based
T2 sequence (P34975 whole entry): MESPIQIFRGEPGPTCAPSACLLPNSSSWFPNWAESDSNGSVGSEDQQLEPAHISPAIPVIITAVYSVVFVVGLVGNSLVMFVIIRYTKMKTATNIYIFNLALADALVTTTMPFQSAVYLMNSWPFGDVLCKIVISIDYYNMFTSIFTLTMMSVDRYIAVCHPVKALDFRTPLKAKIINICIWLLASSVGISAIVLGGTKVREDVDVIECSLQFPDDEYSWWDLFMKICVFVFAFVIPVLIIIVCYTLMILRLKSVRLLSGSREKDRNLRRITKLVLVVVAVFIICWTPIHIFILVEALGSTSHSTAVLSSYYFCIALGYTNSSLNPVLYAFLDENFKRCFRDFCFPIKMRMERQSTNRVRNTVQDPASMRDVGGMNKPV

Mus musculus = assay: In vivo analgesic activity in hot plate test after subcutaneous administration in mice; type: functional; settings: sc
[3] = biological target: T2, Kappa-type opioid receptor; assay: Inhibition of 9 (2 nM) binding to Opioid receptor kappa 1 of rat brain homogenate; type: tissue-based
[4] = biological target: T1, Delta-type opioid receptor; assay: Inhibition of [3H]-[D-Pen2, D-Pen5]-enkephalin (2 nM) to Opioid receptor delta 1 of male Sprague-Dawley rat brain homogenate; Not detectable

Chain of Mu-type opioid receptor (P33535 whole entry): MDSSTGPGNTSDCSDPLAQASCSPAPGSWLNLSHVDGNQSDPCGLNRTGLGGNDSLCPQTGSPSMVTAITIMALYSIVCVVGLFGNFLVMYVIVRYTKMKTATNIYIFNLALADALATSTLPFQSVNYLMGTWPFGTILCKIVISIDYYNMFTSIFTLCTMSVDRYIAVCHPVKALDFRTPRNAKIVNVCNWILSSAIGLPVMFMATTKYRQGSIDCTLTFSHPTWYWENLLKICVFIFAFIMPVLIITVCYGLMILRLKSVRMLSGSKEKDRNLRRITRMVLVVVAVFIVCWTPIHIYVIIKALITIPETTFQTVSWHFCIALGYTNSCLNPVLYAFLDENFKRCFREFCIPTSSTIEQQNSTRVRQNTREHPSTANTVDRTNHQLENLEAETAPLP

SMILES | Ki (Mu-type opioid receptor) | Ki [1] | Ki [2] | ED50 (Mus musculus) | Ki [3] | Ki [4]
CC[C@@H](C)N(C[C@H](O)[C@@H]1CCC(=O)N1Cc1ccccc1Cl)[C@@H](C)CC | 32 nM | > 5000 nM | Not Active | 1.5 mg/kg |  | 
CC[C@@H](C)N(C[C@@H](O)[C@H]1CCC(=O)N1Cc1ccccc1Cl)[C@@H](C)CC | 87 nM | 1780 nM |  | 14.3 mg/kg | 260 nM | 
CN1CC[C@]23c4c5ccc(O)c4O[C@H]2[C@@H](O)C=C[C@H]3[C@H]1C5 [MORPHINE] |  |  |  | 4.6 mg/kg |  | 
CC[C@H](C)N(C[C@H](O)[C@H]1CCC(=O)N1Cc1ccccc1Cl)[C@@H](C)CC | > 5000 nM | > 5000 nM |  | > 100 mg/kg | 270 nM | 
CC[C@@H](C)N(C[C@@H](O)[C@H]1CCC(=O)N1Cc1ccccc1Cl)[C@H](C)CC | 35 nM | > 5000 nM |  | 0.47 mg/kg | 4850 nM | 
CC[C@@H](C)N(C[C@@H](O)[C@@H]1CCC(=O)N1Cc1ccccc1Cl)[C@@H](C)CC | 340 nM | > 5000 nM |  | > 100 mg/kg | 3650 nM | 
CC[C@@H](C)N(C[C@@H](O)[C@@H]1CCC(=O)N1Cc1ccccc1Cl)[C@H](C)CC | 390 nM | 550 nM |  | > 100 mg/kg | > 5000 nM | 
CC[C@@H](C)N(C[C@H](O)[C@@H]1CCC(=O)N1Cc1ccccc1Cl)[C@H](C)CC | 0.25 nM | 265 nM |  | 0.01 mg/kg | 62.5 nM | 
CC[C@@H](C)N(C[C@H](O)[C@H]1CCC(=O)N1Cc1ccccc1Cl)[C@@H](C)CC | > 5000 nM |  |  | > 100 mg/kg | 198 nM | Not Active
CC[C@H](C)N(C[C@H](O)[C@@H]1CCC(=O)N1Cc1ccccc1Cl)[C@@H](C)CC | 2250 nM | > 5000 nM |  | > 100 mg/kg | > 5000 nM | 
CC[C@H](C)N(C[C@@H](O)[C@@H]1CCC(=O)N1Cc1ccccc1Cl)[C@@H](C)CC | 145 nM | > 5000 nM |  | > 100 mg/kg | > 5000 nM | 
CC[C@@H](C)N(C[C@H](O)[C@H]1CCC(=O)N1Cc1ccccc1Cl)[C@H](C)CC | 100 nM | 1850 nM |  | 10.4 mg/kg | > 5000 nM | 
CC[C@H](C)N(C[C@@H](O)[C@H]1CCC(=O)N1Cc1ccccc1Cl)[C@@H](C)CC | > 5000 nM |  | Not Active | > 100 mg/kg |  | Not Active
